No end group written: not given here.
T1: human TAS1R2-WT/TAS1R3-L95P (Homo sapiens, UniProt Q7RTX0+Q8TE23, L95P)
T1 construct: expressed in transfected cells; host or cells: HEK293T stably expressing Gα16gust44
T1 sequence (Q8TE23 20-839): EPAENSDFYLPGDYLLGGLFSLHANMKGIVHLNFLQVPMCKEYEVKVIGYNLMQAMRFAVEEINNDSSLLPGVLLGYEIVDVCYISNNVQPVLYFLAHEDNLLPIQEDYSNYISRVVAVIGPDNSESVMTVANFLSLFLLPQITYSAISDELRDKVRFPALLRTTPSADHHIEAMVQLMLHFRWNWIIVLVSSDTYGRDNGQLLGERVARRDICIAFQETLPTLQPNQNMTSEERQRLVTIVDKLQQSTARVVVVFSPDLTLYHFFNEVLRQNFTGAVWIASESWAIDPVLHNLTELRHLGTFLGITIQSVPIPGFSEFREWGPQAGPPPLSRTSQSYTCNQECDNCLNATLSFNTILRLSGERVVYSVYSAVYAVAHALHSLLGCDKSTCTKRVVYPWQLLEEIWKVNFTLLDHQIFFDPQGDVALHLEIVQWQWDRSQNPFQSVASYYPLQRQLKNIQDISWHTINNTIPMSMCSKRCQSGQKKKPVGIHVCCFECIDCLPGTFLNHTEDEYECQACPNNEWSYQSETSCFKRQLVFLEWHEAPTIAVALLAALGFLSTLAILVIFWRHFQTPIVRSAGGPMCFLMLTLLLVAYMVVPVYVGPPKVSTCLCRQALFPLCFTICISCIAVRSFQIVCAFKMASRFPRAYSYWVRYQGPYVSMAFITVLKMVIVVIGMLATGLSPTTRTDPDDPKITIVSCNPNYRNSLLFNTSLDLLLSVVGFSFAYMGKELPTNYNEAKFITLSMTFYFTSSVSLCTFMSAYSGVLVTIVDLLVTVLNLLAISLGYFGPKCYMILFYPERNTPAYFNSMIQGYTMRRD
T1 sequence (Q7RTX0 21-852 L95P): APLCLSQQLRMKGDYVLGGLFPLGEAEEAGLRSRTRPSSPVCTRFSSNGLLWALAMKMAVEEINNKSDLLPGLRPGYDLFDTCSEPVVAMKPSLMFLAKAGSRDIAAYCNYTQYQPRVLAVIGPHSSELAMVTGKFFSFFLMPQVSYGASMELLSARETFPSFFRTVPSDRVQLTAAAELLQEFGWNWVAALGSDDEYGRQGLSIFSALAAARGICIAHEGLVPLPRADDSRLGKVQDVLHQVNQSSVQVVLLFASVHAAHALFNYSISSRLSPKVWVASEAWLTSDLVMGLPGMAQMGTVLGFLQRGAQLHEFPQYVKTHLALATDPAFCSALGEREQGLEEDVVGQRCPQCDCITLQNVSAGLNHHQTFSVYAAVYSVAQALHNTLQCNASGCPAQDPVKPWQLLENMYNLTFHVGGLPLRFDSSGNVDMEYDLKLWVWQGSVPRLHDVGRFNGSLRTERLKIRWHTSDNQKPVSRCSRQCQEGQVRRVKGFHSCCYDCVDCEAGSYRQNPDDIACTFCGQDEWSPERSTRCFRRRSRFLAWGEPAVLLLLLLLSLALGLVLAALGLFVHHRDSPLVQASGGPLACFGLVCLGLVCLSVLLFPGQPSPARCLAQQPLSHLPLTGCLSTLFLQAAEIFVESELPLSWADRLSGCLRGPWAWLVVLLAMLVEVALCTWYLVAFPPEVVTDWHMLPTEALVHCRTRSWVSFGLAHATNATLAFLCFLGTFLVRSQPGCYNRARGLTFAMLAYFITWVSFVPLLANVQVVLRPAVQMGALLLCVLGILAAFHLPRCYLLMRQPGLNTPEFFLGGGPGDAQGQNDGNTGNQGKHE


Target: T1, human TAS1R2-WT/TAS1R3-L95P
Assay: Calcium mobilisation assay, TAS1R2-WT with TAS1R3 variant L95P
Type: cell-based
Conditions: for Max ΔF/F0: maximal signal amplitude; for Max ΔF/F0 / EC50: "-": no activation
Source text: The coding sequences for TAS1R2 and TAS1R3 were commercially synthesised, and the human codon was optimised for expression in human cells. The coding sequences of human TAS1R2 and TAS1R3 were subcloned and inserted into the mammalian expression vectors pcDNA6/myc-HisA and pcDNA4/myc-HisA (Invitrogen; Thermo Fisher Scientific; Illkirch, France) between the EcoRI and NotI restriction sites, generating the plasmids pcDNA6-TAS1R2 and pcDNA4-TAS1R3, respectively. To increase protein expression in mammalian cells, an upstream start codon was used, which was a sequence called MAX, corresponding to the QBI SP163 element also described in pcDNA4-HisMax (Invitrogen; Thermo Fisher Scientific; Illkirch, France). To measure the expression level of the receptor by immunohistochemistry, we used the FLAG sequence ([…]) in the C-terminal position, which encodes the FLAG tag epitope. SNP variants of TAS1R2 and TAS1R3 were constructed based on […], respectively, using site-directed mutagenesis (Genewiz; Leipzig, Germany).
The HEK293T cells were kindly provided by Jay P. Slack (Givaudan Flavors Corporation; Cincinnati, OH, USA). HEK293T cells stably transfected with Gα16gust44 [43, 67] were seeded in poly-D-lysine-coated clear-bottom black 96-well plates (0.35 × 10^5 cells/well) in high-glucose DMEM supplemented with 2 mM GlutaMAX, 10% dialysed foetal bovine serum with penicillin/streptomycin and G418 (400 μg/mL) at 37 °C and 6.3% CO2 in a humidified atmosphere as previously reported. […] As a negative control, HEK293T cells were mock-transfected with the empty expression vector. After a further 24 h of incubation, the HEK293T cells were washed with C1 buffer (130 mM NaCl, 5 mM KCl, 10 mM HEPES pH 7.4 and 2 mM CaCl2). The 96-well plates containing the cells were then stimulated with sweet-tasting compounds. […] Different concentration ranges were tested depending on the sweet compound injected. The Ca^2+ changes were expressed as fractional changes in fluorescent light intensity: ΔF/F = (F − F0)/F0, where F was the fluorescent light intensity at each point, and F0 was the value of emitted fluorescent light prior to stimulus application. To calculate dose–response relationships, the changes in fluorescence upon stimulus application were averaged, mock-subtracted and baseline-corrected. The dose–response data obtained were adjusted using a 4-parameter logistic equation. The half-maximal effective concentrations (EC50 values) and maximal signal amplitudes were calculated using SigmaPlot software (version 15.0) (Systat Software; San Jose, CA, USA).
For in vitro calcium mobilisation assay performed on hTAS1R2-SNPs, hTAS1R3-SNPs and mTAS1R3-I60T, 6 to 7 concentrations were tested for each sweet compound, plus buffer alone. All concentration–receptor combinations were measured in duplicate, and each experiment was repeated at least 4 times (8 wells/concentration). Results were expressed for each concentration as ΔF/F mean ± SEM and represented as dose–response curves.

Molecule | R1 = Variant EC50/WT EC50 | Max ΔF/F0 | EC50 [µM]
C[C@H](CC[C@@H](O[C@@H]1O[C@H](CO[C@@H]2O[C@H](CO)[C@@H](O)[C@H](O)[C@H]2O)[C@@H](O)[C@H](O)[C@H]1O[C@@H]1O[C@H](CO)[C@@H](O)[C@H](O)[C@H]1O)C(C)(C)O)[C@H]1CC[C@@]2(C)[C@@H]3CC=C4[C@@H](CC[C@H](O[C@@H]5O[C@H](CO[C@@H]6O[C@H](CO)[C@@H](O)[C@H](O)[C@H]6O)[C@@H](O)[C@H](O)[C@H]5O)C4(C)C)[C@]3(C)[C@H](O)C[C@]12C [Mogroside V, mogroside V] | 8.4 | 0.08 | 
C=C(C)[C@@H]1CC=C(/C=N/O)CC1 [Perillartine, perillartine] | 2.5 | 0.14 ± 0.02 | 33.9 ± 2.8
brazzein (QDKCKKVYENYPVSKCQLANQCNYDCKLDKHARSGECFYDEKRNLQCICDYCEY; ends and bridges not checked; cysteine pairing not given here; UniProt P56552 1-54, looked up) [sweet-tasting protein obtained by recombinant production using the yeast Pichia pastoris] | 19.3 | 0.10 ± 0.05 | 
thaumatin | 2.6 | 0.89 ± 0.01 | 
thaumatin (protein, Eight disulfides, sweet-tasting plant protein, E957) ATFEIVNRCSYTVWAAASKGDAALDAGGRQLNSGESWTINVEPGTKGGKIWARTDCYFDDSGSGICKTGDCGGLLRCKRFGRPPTTLAEFSLNQYGKDYIDISNIKGFNVPMDFSPTTRGCRGVRCAADIVGQCPAKLKAPGGGCNDACTVFQTSEYCCTTGKCGPTEYSRFFKRLCPDAFSYVLDKPTTVTCPGSSNYRVTFCPTA |  |  | 27.4 ± 5.8

— PMC11945486, “TAS1R2/TAS1R3 Single-Nucleotide Polymorphisms Affect Sweet Taste Receptor Activation by Sweeteners: The SWEET Project” (Nutrients, 2025)
